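Compound exposure: 48 hours, 5 concentrations, 96-well plates. GI50: concentration for 50% inhibition of growth.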 Calls of active or inactive are those of the source. Rule as the data show it: active = GI50 up to about 1.1 µM and inactive = higher.
Assays:
Assay in all cases: inhibition of tumour cell growth, NCI panel, 48 h
M14 = tested on: M14
KM-20L2 = tested on: KM-20L2
K562 = tested on: K562
DLD-1 = tested on: DLD-1
EKVX = tested on: EKVX
RXF 393 = tested on: RXF 393
NCI-H460 = tested on: NCI-H460
HCT-116 = tested on: HCT-116
NCI-H522 = tested on: NCI-H522
CCRF-CEM = tested on: CCRF-CEM
SR = tested on: SR
A549 = tested on: A549
UO-31 = tested on: UO-31
SF-539 = tested on: SF-539
DMS-273 = tested on: DMS-273
SNB-78 = tested on: SNB-78
OVCAR-4 = tested on: OVCAR-4
DMS-114 = tested on: DMS-114

| Structure (SMILES) | GI50 (M14) | GI50 (KM-20L2) | GI50 (K562) | GI50 (DLD-1) | GI50 (EKVX) | GI50 (RXF 393) | GI50 (NCI-H460) | GI50 (HCT-116) | GI50 (NCI-H522) | GI50 (CCRF-CEM) | GI50 (SR) | GI50 (A549) | GI50 (UO-31) | GI50 (SF-539) | GI50 (DMS-273) | GI50 (SNB-78) | GI50 (OVCAR-4) | GI50 (DMS-114) |
| --- | --- | --- | --- | --- | --- | --- | --- | --- | --- | --- | --- | --- | --- | --- | --- | --- | --- | --- |
| C/C(CC(=O)Nc1ccc(C)c(C)c1)=N\N(c1ccccc1)c1ccccc1 | > 100 µM (inactive) | 13.3 µM (inactive) | 26.2 µM (inactive) | 55.7 µM (inactive) | > 100 µM (inactive) | 63.2 µM (inactive) | > 100 µM (inactive) | 43.4 µM (inactive) | 15.2 µM (inactive) | 26.4 µM (inactive) | 22.4 µM (inactive) | > 100 µM (inactive) | 46 µM (inactive) | > 100 µM (inactive) | 17.6 µM (inactive) | > 100 µM (inactive) | 43.4 µM (inactive) | 18.3 µM (inactive) |
| CCOC(=O)NN1C(=O)C(=P(c2ccccc2)(c2ccccc2)c2ccccc2)C(C(=O)OC)=C1C | > 100 µM (inactive) | > 100 µM (inactive) | > 100 µM (inactive) | > 100 µM (inactive) | > 100 µM (inactive) | > 100 µM (inactive) | > 100 µM (inactive) | > 100 µM (inactive) | > 100 µM (inactive) | > 100 µM (inactive) | > 100 µM (inactive) | > 100 µM (inactive) | > 100 µM (inactive) | > 100 µM (inactive) | > 100 µM (inactive) | > 100 µM (inactive) | > 100 µM (inactive) | > 100 µM (inactive) |
| O=c1c2cc(Br)ccc2nc(CNc2ccccc2)n1-c1ccccc1 | 20.7 µM (inactive) | 59 µM (inactive) | 14.6 µM (inactive) | 9.02 µM (inactive) | 21.9 µM (inactive) | 15.7 µM (inactive) | 17.4 µM (inactive) | 13.4 µM (inactive) | 6.84 µM (inactive) | 3.09 µM (inactive) | 6.52 µM (inactive) | 21.7 µM (inactive) | > 43.9 µM (inactive) | 16.2 µM (inactive) | 25.8 µM (inactive) | 21.1 µM (inactive) | 6.38 µM (inactive) | 11.5 µM (inactive) |
| CCCCN(CCCC)C(=O)C(=O)CC(=O)/C=C/c1ccccc1 | > 100 µM (inactive) | > 100 µM (inactive) | > 100 µM (inactive) | > 100 µM (inactive) | > 100 µM (inactive) | > 100 µM (inactive) | > 100 µM (inactive) | > 100 µM (inactive) | > 100 µM (inactive) | > 100 µM (inactive) | > 100 µM (inactive) | > 100 µM (inactive) | > 100 µM (inactive) | > 100 µM (inactive) | > 100 µM (inactive) | > 100 µM (inactive) | > 100 µM (inactive) | > 100 µM (inactive) |
| [N-]=[N+]=NC(c1cn(C2CC(O)C(CO)O2)c(=O)[nH]c1=O)C(Br)I (configuration not stated) | > 100 µM (inactive) | > 100 µM (inactive) | > 100 µM (inactive) | > 100 µM (inactive) | > 100 µM (inactive) | > 100 µM (inactive) | > 100 µM (inactive) | > 100 µM (inactive) | > 100 µM (inactive) | > 100 µM (inactive) | > 100 µM (inactive) | > 100 µM (inactive) | > 100 µM (inactive) | > 100 µM (inactive) | > 100 µM (inactive) | > 100 µM (inactive) | – | > 100 µM (inactive) |
| C[C@]12CCC3c4ccc(OC(=O)c5ccccc5)cc4CC[C@H]3C1CC[C@@H]2OC(=O)C12OC1CCC2=O (some centres not stated) | 5.79 µM (inactive) | 5.89 µM (inactive) | 2.07 µM (inactive) | 2.47 µM (inactive) | 6.61 µM (inactive) | 2.41 µM (inactive) | 4.26 µM (inactive) | 3.03 µM (inactive) | 2.31 µM (inactive) | 0.959 µM (active) | 3.31 µM (inactive) | 5.64 µM (inactive) | 5.75 µM (inactive) | 2.34 µM (inactive) | 5.01 µM (inactive) | 6.34 µM (inactive) | 5.41 µM (inactive) | 2.6 µM (inactive) |
| O=C(/C(=N/Nc1ccccc1)c1ccc([N+](=O)[O-])cc1)c1ccc([N+](=O)[O-])cc1 | > 100 µM (inactive) | > 100 µM (inactive) | 64.4 µM (inactive) | > 100 µM (inactive) | > 100 µM (inactive) | > 100 µM (inactive) | > 100 µM (inactive) | > 100 µM (inactive) | 21.9 µM (inactive) | – | > 100 µM (inactive) | > 100 µM (inactive) | > 100 µM (inactive) | > 100 µM (inactive) | > 100 µM (inactive) | > 100 µM (inactive) | > 100 µM (inactive) | > 100 µM (inactive) |
| Cc1c[n+]2c3ccccc3c3ccccc3c2s1.[O-][Cl+3]([O-])([O-])[O-] | 17.4 µM (inactive) | 1.33 µM (inactive) | 4.29 µM (inactive) | 12 µM (inactive) | 4.89 µM (inactive) | 0.043 µM (active) | 5.94 µM (inactive) | 6.37 µM (inactive) | 1.73 µM (inactive) | 4.1 µM (inactive) | 3.33 µM (inactive) | 4.01 µM (inactive) | 3.25 µM (inactive) | 4.59 µM (inactive) | 5.3 µM (inactive) | 0.721 µM (active) | 8.73 µM (inactive) | 2.61 µM (inactive) |
| CC(C)C.C[N+](C)(C)C.OC(c1ccccc1)(C(F)(F)F)C(F)(F)F.OC(c1ccccc1)(C(F)(F)F)C(F)(F)F.[SiH3-] | 1.05 µM (active) | 2.29 µM (inactive) | 3.89 µM (inactive) | 2.77 µM (inactive) | 3.73 µM (inactive) | 3.18 µM (inactive) | 2.04 µM (inactive) | 3.46 µM (inactive) | 6.01 µM (inactive) | – | 2.09 µM (inactive) | 4.79 µM (inactive) | 5.79 µM (inactive) | 2.51 µM (inactive) | 10.2 µM (inactive) | 10.3 µM (inactive) | 7.59 µM (inactive) | 7.16 µM (inactive) |
| C=C1C[C@]23C[C@@]1(O)CC[C@H]2[C@@]12C=C[C@H](O)[C@@](C)(C(=O)O1)[C@H]2[C@@H]3C(=O)O [GIBBERELLIN A3] | > 100 µM (inactive) | > 100 µM (inactive) | > 100 µM (inactive) | > 100 µM (inactive) | > 100 µM (inactive) | > 100 µM (inactive) | > 100 µM (inactive) | > 100 µM (inactive) | > 100 µM (inactive) | > 100 µM (inactive) | > 100 µM (inactive) | > 100 µM (inactive) | > 100 µM (inactive) | > 100 µM (inactive) | > 100 µM (inactive) | > 100 µM (inactive) | > 100 µM (inactive) | > 100 µM (inactive) |

Source: ChEMBL document CHEMBL1201862, “PubChem BioAssay data set” (2004)
